Patent US20230172994A1, “METHODS OF PROMOTING VASCULOGENESIS” (TissueTech, Inc., priority 2019, published 2023)

Assays:
Type in all cases: cell-based, human
P10 LNC [1] = assay: Immunofluorescence staining (cytospin), nuclear translocation
Experimental: Immunostaining: LNC were then subjected to cytospin to determine nuclear translocation of HIF1α, HIF1β, HIF2α, SDF-1, CXCR4, and Hes1 at 5, 15, 30 and 60 mins.
Single cells of LNC or CSC at different passages were harvested with 0.05% trypsin and 1 mM EDTA at 37° C. for 10 min and prepared for cytospin using Cytofuge (StatSpin Inc., Norwood, Mass.) at 1000 g for 8 min. Cells were fixed with 4% formaldehyde, pH 7.0, for 15 min at room temperature, permeabilized with 0.2% Triton X-100 in PBS for 15 min and blocked with 2% bovine serum albumin (BSA) for 1 h before incubated with primary antibodies for 16 h at 4° C. After 3 washes with PBS, the corresponding Alexa Fluor-conjugated secondary IgG (all 1:100 dilution) were incubated for 60 min and 3 washing with PBS. After 3 washes with PBS, the second primary antibodies were incubated for 60 min and followed with the corresponding Alex Fluor-conjugated secondary IgG. The nucleus was counterstained with Hoechst 33342 before being analyzed with Zeiss LSM 700 confocal microscope (Carl Zeiss, Thornwood, N.Y.). Corresponding mouse and rabbit sera were used as negative controls for primary monoclonal and polyclonal antibodies, respectively.

P10 LNC [2] = assay: Subcellular fractionation and Western blotting
Experimental: Nuclear and cytoplasmic fractions were prepared using the NE-PER® Nuclear and Cytoplasmic Extraction Reagents Kit (Pierce, Rockford, Ill., USA) as per manufacturer's instruction. Briefly, the treated P10 LNC were washed once on cold PBS and centrifuged at 500 g for 5 min.
The cell pellet was suspended in 100 μL of cytoplasmic extraction reagent I containing protease inhibitor by vortexing. The suspension was incubated on ice for 10 min followed by the addition of 6 μL of a second cytoplasmic extraction reagent II, vortexed for 5s, incubated on ice for 1 min and centrifuged for 5 min at 16 000 g. The supernatant fraction (cytoplasmic extract) was transferred to a pre-chilled tube. The insoluble pellet fraction, which contains crude nuclei, was resuspended in 50 μL of nuclear extraction reagent by vortexing during 15s three times and incubated on ice for 10 min each, then centrifuged for 10 min at 16 000 g. The resulting supernatant, constituting the nuclear extract, was used for the subsequent experiments. Protein concentration was quantitated using the BCA protein assay kit (Pierce). […] Immunoreactive proteins were detected with Western Lighting Chemiluminescence (PerkinElmer, Waltham, Mass.) and images captured by GE ImageQuant LAS 4000 (GE Healthcare Biosciences, Pittsburgh, Pa.).

P10 LNC [3] = assay: Time course mRNA expression by qPCR
Experimental: (§1) Cell culture: For time course study, 1×10^5/ml of P10 LNC was seeded on three substrates: 3D Matrigel™, HA, or HC-HA/PTX3 in MESCM at 5, 15, 30, 60 mins, 24 h and 48 h (Table 2).
qPCR: Comparisons were made of mRNA expression of HIF1α, HIF1β, HIF2α, SDF-1, CXCR4, Hes1 at 5, 15, 30, 60, 120, 240 min or 24 and 48 h.
Cell culture: 1×10^5/ml of P10 LNC was seeded on three substrates: 3D Matrigel™ HA, or HC-HA/PTX3 in MESCM for 48 h. For time course study on HC-HA/PTX3, P10 LNC will be treated HC-HA/PTX3 for 5, 15, 30, 60 mins, 24 h and 48 h.
qPCR: Comparison mRNA expression VEGF, PDGFα, CD31 and IGF-1 for angiogenesis and NGF and p75^NTR for neurogenesis at 5, 15, 30, 60, 120, 240 min 24 or 48 h on 3D MG, immobilized HA and immobilized HC-HA/PTX3.
(§2) For the siRNA knockdown, 80% confluent P10 LNC on 6-well coated MG were subjected to transfection by mixing 200 μL of serum-free, antibiotic-free MESCM with 4 μL of HiPerFect siRNA transfection reagent (Final dilution, 1:300) and 6 μL of 20 μM of scRNA or siRNAs for BMPR1A, BMPR1B, BMPR2, and ACVR1 at the final concentration of 100 nM, drop-wise, followed by culturing in 1 mL of fresh MESCM at 37° C. for 24 h before soluble HC-HA/PTX3 was added at a final concentration of 20 μg/mL in MESCM.
Total RNAs were extracted from expanded LNC by RNeasy Mini Kit (Qiagen, Valencia, Calif.) according to manufacturer's guideline and 1-2 ug of RNA extract was reverse transcribed to cDNA with reverse-transcribed using Applied Biosystem™ High Capacity Reverse Transcription Kit (Thermo Fisher, Santa Clara, Calif.) using primers. The resultant cDNAs were amplified by specific TaqMan gene expression assay mix and universal PCR master mix in QuantStudio™ 5 Real Time PCR System (Thermo Fisher, Santa Clara, Calif.) with real-time RT-PCR profile consisting of 10 min of initial activation at 95° C., followed by 40 cycles of 15 sec denaturation at 95° C., and 1 min annealing and extension at 60° C. […] Threshold cycle number (Ct) was calculated with QuantStudio Design and. […] The relative gene expression data were analyzed by the comparative CT method (ΔΔCT). […]

P10 LNC [4] = assay: Cell aggregation / sphere formation by phase contrast microscopy
Experimental: as §1
For expansion, single cells derived from limbal clusters or CSC after digestion with 0.25% trypsin and 1 mM EDTA (T/E) were seeded at 1×10^4/cm^2 in the 6-well plate pre-coated with 5% Matrigel™ in MESCM and cultured in humidified 5% CO2 with media change every 3-4 days for total 6-7 days. For cells culture in three-dimensional (3D) Matrigel, Matrigel was prepared by adding 50% Matrigel diluted in MESCM per chamber of an 8-well chamber slide following incubation at 37° C. for 60 min. LNC cells were seeded in 3D Matrigel and cultured for 24 h or 48 h in MESCM.
as §2

P4 LNC [5] = assay: Immunofluorescence staining (cytospin), nuclear translocation
Experimental: Cell culture: For time course study, 1×10^5/ml of P4 LNC were seeded on substrates HA or HC-HA/PTX3 in MESCM at 5, 15, 30, 60 min, 24 h and 48 h (Table 3).
Immunostaining: LNC then were subjected to cytospin to determine nuclear translocation of HIF1α, HIF1β, HIF2α, SDF-1, CXCR4, and Hes1 at 5, 15, 30 and 60 min.

Rac1 = assay: Rho GTPase activity in LNC; conditions: within 60 minutes, HC-HA/PTX3 active at 5 and 15 min, reduced at 30 min
HUVEC or pericytes (LNC) = assay: Cell proliferation by Edu nuclear staining; conditions: HUVEC or pericytes (LNC) alone
Text: Cells: GFP HUVEC (P3) were purchased from Neuromics (Cat #GF01). These cells were isolated from normal human umbilical vein and transfected with GFP-lentiviral particle at passage 1. Puromycin resistant GFP HUVEC were maintained on fibronectin coated solution in Endo-growth medium containing 5% FBS and growth supplement until passage 3. Cells were split 1:3 every three days when ˜70%-90% confluence is reached. Cells of passage 3-8 were used for all experiments.
LNC (P2-P5) was expanded in MESCM containing 4 ng/ml bFGF and 10 ng/ml LIF on 6-well plastic coated with 5% Matrigel™

LEPC and LNC = assay: Blocking Notch signaling in LEPC+LNC on immobilized HC-HA/PTX3
Experimental: FIGS. 41A-41C illustrate blocking Notch signaling inhibits BMP and non-canonical Wnt in LEPC and LNC on immobilized HC-HA/PTX3 at 48 hours. FIG. 41A illustrates a graph of mRNA levels of various genes following treatment of HC-HA/PTX3 and HC-HA/PTX3/DAPT in LNCS renunioned with LEPC. FIG. 41B illustrates immunostaining with various markers.

P4 LNC [6] = assay: Notch signaling and transcript expression in P4 LNC on plastic, 3D Matrigel or immobilized HC-HA/PTX3

c1cc(CN2CCCNCCNCCCNCC2)ccc1CN1CCCNCCNCCCNCC1 [AMD3100]
CXCR4 staining (P10 LNC [1]; 60 min period, P10 LNC, soluble HC-HA/PTX3 with or without AMD3100, or 3D MG): reverted to that of 3D MG | nuclear staining of pSmad1/5 (P10 LNC [1]; P10 LNC, soluble HC-HA/PTX3 with or without AMD3100): absent nuclear staining | immunofluorescence of SDF-1 (P10 LNC [1]; throughout 60 min): became negative | nuclear pSmad1/5 (P10 LNC [2]; 5, 15, 30 min): not promoted | CXCR4 and Pax6 protein in cytoplasmic and nuclear fractions (P10 LNC [2]; 15 and 30 min, AMD3100 all time points): remain in cytoplasmic fraction | HIF-1α and HIF-1β transcripts (P10 LNC [3]; addition of AMD3100): upregulated two peaks | transcript levels of BMP2, BMP4 and BMP6, effect of inhibitor (P10 LNC [3]; throughout 48 h, with soluble HC-HA/PTX3): aborted | Pax6, p75NTR, NGF, Musashi-1, Msx-1 and FoxD3 transcripts, effect of inhibitor (P10 LNC [3]; with soluble HC-HA/PTX3): significant downregulation

hyaluronic acid [HA]
cell aggregation as early as 60 min (P10 LNC [4]): not | nuclear PP2A C subunit (P10 LNC [1]; 5 and 30 min, comparators entire 60 min): significantly less expression | CXCR4 localisation (P10 LNC [1]; HC-HA/PTX3: as early as 15 min, prominent at 30 min, no longer nuclear at 60 min): membrane translocation | staining of HIF1α and HIF1β (P10 LNC [1]; HC-HA/PTX3: at 5 min, HIF1α sustained till 15 and 30 min): both cytoplasmic and nuclear | nuclear p-PHD2 (serine 125) (P10 LNC [1]; HC-HA/PTX3 at 5 and 15 min, HA and 3D MG throughout 60 min): maintained nuclear Phospho-PHD2 | earliest nucleus Hes1 (P10 LNC [1]; P10 LNC): 15 min | HIF2α (P4 LNC [5]): No changes | NICD and SDF1 (P4 LNC [5]): No changed | time of HIF1α nuclear translocation (P4 LNC [5]): did the same | time of HIF1β nuclear translocation (P4 LNC [5]): 5 to 30 min | time of Hes1 nuclear translocation (P4 LNC [5]): 5 to 15 min | CXCR4 nuclear translocation (P4 LNC [5]; 5, 30 min, transient): does not | Rac1 GTPase activities (Rac1): gradual decline | cell proliferation (Edu nuclear staining) (HUVEC or pericytes (LNC)): promoted cell proliferation

C[C@H](NC(=O)Cc1cc(F)cc(F)c1)C(=O)N[C@H](C(=O)OC(C)(C)C)c1ccccc1 [DAPT]
nuclear psmad/1/5/8 and c-Jun (LEPC and LNC; LEPC+LNC on immobilized HC-HA/PTX3): absence | quiescence epithelium markers (LEPC and LNC; LEPC+LNC on immobilized HC-HA/PTX3, 48 hours): significantly downregulated | cell aggregation of LNC on HC-HA/PTX3, effect of inhibitor (P4 LNC [6]): did not prevent | Notch1/2/3/Jagged 1/Hes1 signaling with MET epithelial phenotype (p63α, Pax6, Sox9), effect of inhibitor (P4 LNC [6]; LNC on HC-HA/PTX3): further promoted
